The values below come from patent US6528501B1, “22s-hydroxycholesta-8, 14-diene derivatives with meiosis regulating activity” (Akzo Nobel N.V., priority 1998, dated 2003).

One data set concerns meiosis. The conditions noted are these: disclosed in WO 98/28323; cited from earlier work.
The test system of data set [1] is cultured cumulus enclosed and naked mouse oocytes. The conditions noted are these: cited from earlier work.
Data set [2] concerns cumulus enclosed oocytes (CEO). The data set is described as follows: Oocyte assay, cumulus enclosed oocytes (CEO): overcoming hypoxanthine maintained meiotic arrest. To be noted: 22 hours culture, hypoxanthine 4 mM, control value in parentheses. It counts as cell-based, mice (B6D2-F1, strain C57BL×DBA). How it is done: (§1) The meiosis activating activity of the […]-hydroxycholesta-8,14-diene derivatives of the invention is measured in an in vitro oocyte assay as the ability to overcome the hypoxanthine maintained meiotic arrest in denuded oocytes (DO) or cumulus enclosed oocytes (CEO). Oocytes arrested in meiosis contain diffused chromosomes which are surrounded by an intact nuclear envelope known as the germinal vesicle (GV). Upon reinitiation of meiosis by the […] gonadotropin surge, the chromosomes recondense and the GV breaks down (GVBD). In vivo, the oocyte is exposed to hypoxanthine (HX), which maintains the oocyte arrested in the meiotic prophase. This meiotic arrest can be mimicked in vitro by addition of hypoxanthine to the culture medium. The agonistic activity of the meiosis activating substances is measured as the ability to overcome the hypoxanthine maintained meiotic arrest in denuded oocytes (DO) or cumulus enclosed oocytes (CEO), i.e. as the ability to induce meiotic resumption in vitro. Ovaries are obtained from immature female mice (B6D2-F1, strain C57BL×DBA). At the age of 19, 20 or 21 days the mice are injected subcutaneously with a single dose of 20 IU follicle stimulating hormone (Humegon, Organon, The Netherlands) in saline. Forty-eight hours after follicle stimulating hormone injection mice are killed by cervical dislocation. The ovaries are removed, freed of extraneous tissue and placed in a multidish containing 0.5 ml preparation medium at 37° C. […] At t=0 the number of oocytes with intact germinal vesicles (GV) or germinal vesicle break-down (GVBD) is counted under an inverted microscope with differential interference contrast equipment. […] At the end of the culture period the number of oocytes with GV or GVBD per group is counted. For statistical analysis the percentage germinal vesicle breakdown is calculated for each group in one block. These percentages are subjected to arcsin transformation, and differences between control and test compounds are analyzed by an ANOVA test for a randomized block design.

The next data set has as its system denuded oocytes (DO). As to the kind of experiment: Oocyte assay, denuded oocytes (DO): overcoming hypoxanthine maintained meiotic arrest. The class given is cell-based, mice (B6D2-F1, strain C57BL×DBA). To be noted: 22 hours culture, hypoxanthine 4 mM, control value in parentheses. How it is done:
as §1

The term melting point denotes the temperature, or range, at which the solid turns liquid.

For the molecule `CC(C)CC[C@@H](O)[C@@H](C)[C@H]1CC[C@H]2[C@@H]3CC=C4C[C@@H](O)CC[C@]4(C)[C@H]3CC[C@]12C` [22R-hydroxycholesterol], the “agonist/antagonist of meiosis activating substance” value in the data set with meiosis is “antagonist”.
Turning to `CC(C)=CCC[C@@H](C)[C@H]1CC[C@H]2C3=C(CC[C@]12C)[C@@]1(C)CC[C@H](O)C(C)(C)[C@@H]1CC3` [(3β,5α,20R)-4,4-dimethylcholesta-8,24-dien-3-ol], the “ability to activate the resumption of meiosis” value in data set [1] was “able to activate the resumption of meiosis”.
`CC(C)CC[C@H](O)[C@@H](C)[C@H]1CC=C2C3=C(CC[C@@]21C)[C@@]1(C)CC[C@H](O)C(C)(C)[C@@H]1CC3` [Example 1, (3β,5α,20S ,22S)-4,4-Dimethylcholesta-8,14-diene-3,22-diol] displayed a melting point of 142 to 143 °C. Also, the “% GVBD CEO assay exp.” value in data set [2] (5 μM) is listed as 6(3) %. The “% GVBD DO assay exp.” value with denuded oocytes (DO) (5 μM) is 85(0) %.
`CC(C)=CC[C@H](O)[C@@H](C)[C@H]1CC=C2C3=C(CC[C@@]21C)[C@@]1(C)CC[C@H](O)C(C)(C)[C@@H]1CC3` [Example 2, (3β,5α,20S,22S )-4,4-Dimethylcholesta-8,14,24-triene-3,22-diol] displayed a melting point of 106 to 108 °C. In addition, in data set [2] (5 μM), the “% GVBD CEO assay exp.” value is 73(2) %. Also, the “% GVBD DO assay exp.” value with denuded oocytes (DO) (5 μM) is on record as 97(2) %.
Regarding `CC(C)=CCC[C@@H](C)[C@H]1CC=C2C3=C(CC[C@@]21C)[C@@]1(C)CC[C@H](O)C(C)(C)[C@@H]1CC3` [FF-Mas, (3β,5α,20R)-4,4-dimethylcholesta-8,14,24-trien-3-ol], the “ability to activate the resumption of meiosis” value in data set [1] is “able to activate the resumption of meiosis”. Moreover, the “% GVBD CEO assay exp.” value in data set [2] (10 μM) is given as 0(0) %. The “% GVBD DO assay exp.” value in the data set with denuded oocytes (DO) (10 μM) is 84(7) %.
